From ChEMBL document CHEMBL2157997, “β-D-2'-α-F-2'-β-C-Methyl-6-O-substituted 3',5'-cyclic phosphate nucleotide prodrugs as inhibitors of hepatitis C virus replication: a structure-activity relationship study” (Bioorg Med Chem Lett, 2012)

Columns and labels:
Hepatocyte = assay: Prodrug activation in human primary hepatocytes assessed as assessed as Tmax of beta-D-2'-deoxy-2'-alpha-fluoro-2'-beta-C-methylguanosine triphosphate level at 100 uM; format: cell-based, Liver
[1] = Half life in human plasma; format: ADME, cell-free
[2] = Half life in simulated intestinal fluid; format: physicochemical
[3] = Half life in rat plasma; format: ADME, cell-free
[4] = Half life in human liver S9 fraction; format: ADME, subcellular
Huh-7 [5] = assay: Prodrug activation in human HuH7 cells infected with HCV genotype 1b assessed as Tmax of beta-D-2'-deoxy-2'-alpha-fluoro-2'-beta-C-methylguanosine triphosphate level at 100 uM; format: cell-based; settings: huh-7, 100 µM
[6] = Half life in simulated gastric fluid; format: physicochemical
[7] = Cytotoxicity against human HuH7 cells; format: cell-based; settings: Huh-7 cells
Hepatitis C virus [8] = assay: Antiviral activity against Hepatitis C virus genotype 1b replicon infected in clone A cells assessed as inhibition of viral replication by RT-PCR analysis; format: functional, Hepacivirus hominis
Hepatitis C virus [9] = assay: Antiviral activity against Hepatitis C virus genotype 1b replicon infected in Lunet cells by luciferase reporter gene assay; format: functional, Hepacivirus hominis
[10] = Half life in rat at 40 mg/kg, po administered QD measured after 1 day; format: ADME, organism-based; parameters: dose 40 mg/kg, route oral; settings: in vivo
Rattus norvegicus [11] = assay: Prodrug conversion in rat liver assessed as beta-D-2'-deoxy-2'-alpha-fluoro-2'-beta-C-methylguanosine triphosphate level at 40 mg/kg, po administered QD as repeated dose measured at 4 hrs post-dosing on day 8; format: ADME, organism-based; parameters: dose 40 mg/kg, route oral; settings: in vivo
[12] = AUClast in rat at 40 mg/kg, po administered QD measured after 7 days; format: ADME, organism-based; parameters: dose 40 mg/kg, route oral; settings: plasma
Rattus norvegicus [13] = assay: Prodrug activation in rat liver assessed as beta-D-2'-deoxy-2'-alpha-fluoro-2'-beta-C-methylguanosine monophosphate level at 40 mg/kg, po administered QD as repeated dose measured at 4 hrs post-dosing on day 8; format: organism-based; parameters: dose 40 mg/kg, route oral; settings: in vivo
HepG2 [14] = assay: Cytotoxicity against human HepG2 cells up to 100 uM after 8 days by MTT assay; format: cell-based; settings: hepg2, 192 h
Huh-7 [15] = assay: Cytotoxicity against human HuH7 cells up to 100 uM after 8 days by MTT assay; format: cell-based; settings: huh-7, 192 h
CCRF-CEM [16] = assay: Mitochondrial toxicity against human CEM cells assessed as decrease in mitochondrial COX2 DNA up to 100 uM after 14 days by RT-PCR analysis; format: cell-based; settings: 336 h
[17] = Cmax in rat at 40 mg/kg, po administered QD measured after 1 day; format: ADME, organism-based; parameters: dose 40 mg/kg, route oral; settings: in vivo
Rattus norvegicus [18] = assay: Tlast in rat at 40 mg/kg, po administered QD measured after 7 days; format: ADME, organism-based; parameters: dose 40 mg/kg, route oral; settings: in vivo, 168 h
[19] = AUClast in rat at 40 mg/kg, po administered QD measured after 1 day; format: ADME, organism-based; parameters: dose 40 mg/kg, route oral; settings: plasma
[20] = Cmax in rat at 40 mg/kg, po administered QD measured after 7 days; format: ADME, organism-based; parameters: dose 40 mg/kg, route oral; settings: in vivo
CCRF-CEM [21] = assay: Cytotoxicity against human CEM cells up to 100 uM after 8 days by MTT assay; format: cell-based; settings: 192 h
[22] = AUC (infinity) in rat at 40 mg/kg, po administered QD measured after 7 days; format: ADME, organism-based; parameters: time infinity, dose 40 mg/kg, route oral; settings: plasma
Rattus norvegicus [23] = assay: Tlast in rat at 40 mg/kg, po administered QD measured after 1 day; format: ADME, organism-based; parameters: dose 40 mg/kg, route oral; settings: in vivo, 24 h
[24] = Half life in rat at 40 mg/kg, po administered QD measured after 7 days; format: ADME, organism-based; parameters: dose 40 mg/kg, route oral; settings: in vivo
Hepatitis C virus [25] = assay: Antiviral activity against Hepatitis C virus expressing NS5B S282T mutant by cell-based replicon assay; format: functional, Hepacivirus hominis
Rattus norvegicus [26] = assay: Prodrug activation in rat liver assessed as free nucleoside level at 40 mg/kg, po administered QD as repeated dose measured at 4 hrs post-dosing on day 8; format: organism-based; parameters: dose 40 mg/kg, route oral; settings: in vivo
[27] = Tmax in rat at 40 mg/kg, po administered QD measured after 1 day; format: ADME, organism-based; parameters: dose 40 mg/kg, route oral; settings: in vivo
Rattus norvegicus [28] = assay: Prodrug activation in rat liver assessed as total nucleotide level at 40 mg/kg, po administered QD as repeated dose measured at 4 hrs post-dosing on day 8; format: organism-based; parameters: dose 40 mg/kg, route oral; settings: in vivo
[29] = Tmax in rat at 40 mg/kg, po administered QD measured after 7 days; format: ADME, organism-based; parameters: dose 40 mg/kg, route oral; settings: in vivo
HepG2 [30] = assay: Mitochondrial toxicity against human HepG2 cells assessed as decrease in ribosomal DNA up to 100 uM after 14 days by RT-PCR analysis; format: cell-based; settings: hepg2, 336 h
CCRF-CEM [31] = assay: Mitochondrial toxicity against human CEM cells assessed as decrease in ribosomal DNA up to 100 uM after 14 days by RT-PCR analysis; format: cell-based; settings: 336 h
Rattus norvegicus [32] = assay: Prodrug activation in rat liver assessed as beta-D-2'-deoxy-2'-alpha-fluoro-2'-beta-C-methylguanosine diphosphate level at 40 mg/kg, po administered QD as repeated dose measured at 4 hrs post-dosing on day 8; format: organism-based; parameters: dose 40 mg/kg, route oral; settings: in vivo
HepG2 [33] = assay: Mitochondrial toxicity against human HepG2 cells assessed as decrease in mitochondrial COX2 DNA up to 100 uM after 14 days by RT-PCR analysis; format: cell-based; settings: hepg2, 336 h
[34] = AUC (infinity) in rat at 40 mg/kg, po administered QD measured after 1 day; format: ADME, organism-based; parameters: time infinity, dose 40 mg/kg, route oral; settings: plasma
BXPC-3 = assay: Cytotoxicity against human BxPC3 cells up to 100 uM after 8 days by MTT assay; format: cell-based; settings: bxpc-3, 192 h

## COc1nc(N)nc2c1ncn2[C@@H]1O[C@H](COP(=O)(N[C@@H](C)C(=O)OC(C)C)Oc2ccccc2)[C@@H](O)[C@@]1(C)F (stereo partly specified)
Hepatocyte
  Tmax: 8 h
[1]
  half-life: > 24 h
[2]
  half-life: > 20 h
[3]
  half-life: < 0.02 h
[4]
  half-life: 0.44 h
Huh-7 [5]
  Tmax: 24 h
[6]
  half-life: 16 h

## COc1nc(N)nc2c1ncn2[C@@H]1O[C@@H]2COP(=O)(OC(C)C)O[C@H]2[C@@]1(C)F (stereo partly specified)
[1]
  half-life: > 24 h
[7]
  CC90: > 100000 nM
[2]
  half-life: > 20 h
[3]
  half-life: 5.6 h
Hepatitis C virus [8]
  EC90: 680 nM
[4]
  half-life: > 24 h
Hepatitis C virus [9]
  EC90: 25.8 nM
[6]
  half-life: > 20 h

## CCOP1(=O)OC[C@H]2O[C@@H](n3cnc4c(OC)nc(N)nc43)[C@](C)(F)[C@@H]2O1 (stereo partly specified)
[7]
  CC90: > 10000 nM
Hepatitis C virus [9]
  EC90: 35.8 nM

## COc1nc(N)nc2c1ncn2[C@@H]1O[C@@H]2COP(=O)(OCc3ccccc3)O[C@H]2[C@@]1(C)F (stereo partly specified)
[7]
  CC90: > 10000 nM
Hepatitis C virus [9]
  EC90: 70 nM

## COc1nc(N)nc2c1ncn2[C@@H]1O[C@@H]2COP(=O)(O)O[C@H]2[C@@]1(C)F
[7]
  CC90: > 100000 nM
Hepatitis C virus [9]
  EC90: 180 nM

## CC(C)Oc1nc(N)nc2c1ncn2[C@@H]1O[C@@H]2COP(=O)(OC3CCCC3)O[C@H]2[C@@]1(C)F (stereo partly specified)
Hepatocyte
  Tmax: 24 h
[1]
  half-life: > 23.4 h
[10]
  half-life: 2.83 h
Rattus norvegicus [11]
  Drug metabolism: 2.02 nmol/g
[12]
  AUC(0-t) at 168 h: 170 ng·h/mL
Rattus norvegicus [13]
  Drug metabolism: 20.85 nmol/g
HepG2 [14]
  Activity: Non-toxic
Huh-7 [15]
  Activity: Non-toxic
[7]
  CC90: > 100000 nM
CCRF-CEM [16]
  Activity: Non-toxic
[17]
  Cmax: 80 ng/mL
Rattus norvegicus [18]
  Tlast: 8 h
[19]
  AUC(0-t) at 24 h: 340 ng·h/mL
[2]
  half-life: 15 h
[20]
  Cmax: 50 ng/mL
CCRF-CEM [21]
  Activity: Non-toxic
[3]
  half-life: > 24 h
[22]
  AUC(0-inf): 210 ng·h/mL
Rattus norvegicus [23]
  Tlast: 10.7 h
[24]
  half-life: 3.32 h
Hepatitis C virus [8]
  EC90: 184 nM
Hepatitis C virus [25]
  EC90: 23 nM
Rattus norvegicus [26]
  Drug metabolism: 7.47 nmol/g
[27]
  Tmax: 3.67 h
Rattus norvegicus [28]
  Drug metabolism: 40.5 nmol/g
[29]
  Tmax: 2.33 h
HepG2 [30]
  Activity: Non-toxic
[4]
  half-life: > 24 h
CCRF-CEM [31]
  Activity: Non-toxic
Rattus norvegicus [32]
  Drug metabolism: 17.61 nmol/g
Huh-7 [5]
  Tmax: 72 h
HepG2 [33]
  Activity: Non-toxic
[34]
  AUC(0-inf): 770 ng·h/mL
Hepatitis C virus [9]
  EC90: 60 nM
[6]
  half-life: 9 h
BXPC-3
  Activity: Non-toxic

## CC(C)Oc1nc(N)nc2c1ncn2[C@@H]1O[C@@H]2COP(=O)(OC3CCC3)O[C@H]2[C@@]1(C)F (stereo partly specified)
[1]
  half-life: 11.7 h
[7]
  CC90: > 100000 nM
[2]
  half-life: 4.2 h
[3]
  half-life: 8.6 h
Hepatitis C virus [8]
  EC90: 224 nM
[4]
  half-life: 6.3 h
Hepatitis C virus [9]
  EC90: 50 nM
[6]
  half-life: 2.6 h

## CC(C)Oc1nc(N)nc2c1ncn2[C@@H]1O[C@@H]2COP(=O)(OC3CCCCC3)O[C@H]2[C@@]1(C)F (stereo partly specified)
Hepatitis C virus [9]
  EC90: 300 nM
